The values that follow come from ChEMBL document CHEMBL3085716, “Hytramycins V and I, anti-Mycobacterium tuberculosis hexapeptides from a Streptomyces hygroscopicus strain” (J Nat Prod, 2013).

Each structure is given as a SMILES string. Values after ≈ are worked out from the molar mass of the structure shown.

Assay [1] deals with Acinetobacter baumannii. The experiment in a line: Antibacterial activity against Acinetobacter baumannii ATCC BAA-747 at 10 ug/ml after 16 hrs. The class given is functional. The following applies: ATCC BAA-747, 16 h.
The test system of assay [2] is Acinetobacter baumannii. The experiment in a line: Antibacterial activity against Acinetobacter baumannii ATCC BAA-747 after 16 hrs. The assay is classed as functional. As to conditions: ATCC BAA-747, 16 h.
In assay [3] the test system is Pseudomonas aeruginosa. The assay is described as follows: Antibacterial activity against Pseudomonas aeruginosa ATCC 27853 after 16 hrs. The class given is functional. The following applies: ATCC 27853, 16 h.
Assay [4] concerns Mycobacterium tuberculosis. The experiment in a line: Ratio of MIC for Mycobacterium tuberculosis H37Rv under normoxic condition in presence of 4% bovine serum albumin to MIC for Mycobacterium tuberculosis H37Rv under normoxic condition in absence of 4% bovine serum albumin by MABA assay. The class given is functional.
The test system of assay [5] is Candida albicans. The experiment in a line: Antifungal activity against Candida albicans ATCC 10231 after 48 hrs. The class given is functional. The following applies: ATCC 10231, 48 h.
Assay [6] has as its system Enterococcus faecalis. The experiment in a line: Antibacterial activity against Enterococcus faecalis ATCC 29212 after 16 hrs. The following applies: ATCC 29212, 16 h. The class given is functional.
Assay [7] has as its system Candida albicans. The assay is described as follows: Antifungal activity against Candida albicans ATCC 10231 at 10 ug/ml after 48 hrs. The assay is classed as functional. The following applies: ATCC 10231, 48 h.
The test system of assay [8] is Mycobacterium tuberculosis. The assay is described as follows: Antimycobacterial activity against Mycobacterium tuberculosis clinical isolate X005319 under normoxic condition after 7 days by MABA assay. The assay is classed as functional. The following applies: clinical isolate X005319, 168 h.
Assay [9] concerns Vero. The assay is described as follows: Cytotoxicity against african green monkey Vero cells. The following applies: Chlorocebus sabaeus. The class given is cell-based.
In assay [10] the test system is Staphylococcus aureus. The assay is described as follows: Antibacterial activity against Staphylococcus aureus ATCC 29213 after 16 hrs. As to conditions: ATCC 29213, 16 h. The class given is functional.
In assay [11] the test system is Mycolicibacterium smegmatis. The experiment in a line: Antimycobacterial activity against Mycobacterium smegmatis ATCC 700084 under normoxic condition after 72 hrs by MABA assay. The class given is functional. As to conditions: ATCC 700084, 72 h.
For assay [12], the system named is Mycobacterium tuberculosis. The experiment in a line: Antimycobacterial activity against Mycobacterium tuberculosis clinical isolate X005282 under normoxic condition after 7 days by MABA assay. The class given is functional. As to conditions: clinical isolate X005282, 168 h.
In assay [13] the test system is Escherichia coli. The experiment in a line: Antibacterial activity against Escherichia coli ATCC 25922 at 10 ug/ml after 16 hrs. The following applies: ATCC 25922, 16 h. The assay is classed as functional.
Assay [14] deals with Pseudomonas aeruginosa. The assay is described as follows: Antibacterial activity against Pseudomonas aeruginosa ATCC 27853 at 10 ug/ml after 16 hrs. The assay is classed as functional. As to conditions: ATCC 27853, 16 h.
Assay [15] concerns Mycobacterium tuberculosis. The assay is described as follows: Antimycobacterial activity against Mycobacterium tuberculosis clinical isolate X004439 under normoxic condition after 7 days by MABA assay. As to conditions: clinical isolate X004439, 168 h. The assay is classed as functional.
Assay [16] relates to Mycobacterium tuberculosis. The assay is described as follows: Antimycobacterial activity against Mycobacterium tuberculosis clinical isolate X004244 under normoxic condition after 7 days by MABA assay. The following applies: clinical isolate X004244, 168 h. The class given is functional.
Assay [17] deals with Streptococcus pneumoniae. The assay is described as follows: Antibacterial activity against Streptococcus pneumoniae ATCC 49619 after 20 hrs. The class given is functional. The following applies: ATCC 49619, 20 h.
In assay [18] the test system is Mycobacterium tuberculosis. The experiment in a line: Antimycobacterial activity against Mycobacterium tuberculosis clinical isolate X003899 under normoxic condition after 7 days by MABA assay. The following applies: clinical isolate X003899, 168 h. The assay is classed as functional.
Assay [19] has as its system Mycobacterium tuberculosis. The experiment in a line: Antimycobacterial activity against Mycobacterium tuberculosis H37Rv under normoxic condition after 7 days by MABA assay. The assay is classed as functional. The following applies: for MIC90: Mycobacterium tuberculosis, H37Rv, 168 h.
Assay [20] deals with Mycobacterium tuberculosis. The assay is described as follows: Antimycobacterial activity against Mycobacterium tuberculosis H37Rv under normoxic condition after 7 days by MABA assay in presence of 10% fetal bovine serum. The class given is functional. The following applies: 168 h.
In assay [21] the test system is Mycobacterium tuberculosis. The experiment in a line: Ratio of MIC for Mycobacterium tuberculosis H37Rv under normoxic condition in presence of 10% fetal bovine serum to MIC for Mycobacterium tuberculosis H37Rv under normoxic condition in absence of 10% fetal bovine serum by MABA assay. The class given is functional.
In assay [22] the test system is Escherichia coli. The experiment in a line: Antibacterial activity against Escherichia coli ATCC 25922 after 16 hrs. As to conditions: ATCC 25922, 16 h. The assay is classed as functional.
Assay [23] concerns Mycobacterium tuberculosis. The assay is described as follows: Antimycobacterial activity against Mycobacterium tuberculosis clinical isolate X001354 under normoxic condition after 7 days by MABA assay. The following applies: clinical isolate X001354, 168 h. The class given is functional.
Assay [24] deals with Mycobacterium tuberculosis. The assay is described as follows: Antimycobacterial activity against Mycobacterium tuberculosis H37Rv under normoxic condition after 7 days by MABA assay in presence of 4% bovine serum albumin. The class given is functional. The following applies: 168 h.

As to `CC[C@H](C)[C@H]1NC(=O)[C@H](CC(C)C)NC(=O)[C@H]2CCCNN2C(=O)[C@H](C)N(C)C(=O)[C@H]2CCCNN2C(=O)[C@@H]2CCCNN2C1=O`, the inhibition at 10 µg/mL in assay [1] was 77%; in assay [7] it was 0%; in assay [13], 2%; in [14], 10%. The MIC90 was above 10 mg/L in assay [2]; above 10 mg/L in assay [3]; above 10 mg/L in assay [5]; 3.5 mg/L (≈ 5.4 µM) in assay [6]; 4.8 mg/L (≈ 7.41 µM) in assay [8]; 4.5 mg/L (≈ 6.95 µM) in assay [10]. Further, the MIC90 is above 10 mg/L in assay [11]; 4.7 mg/L (≈ 7.26 µM) in assay [12]; 4.4 mg/L (≈ 6.79 µM) in assay [15]; 4.7 mg/L (≈ 7.26 µM) in assay [16]; 2.4 mg/L (≈ 3.7 µM) in assay [17]; 4.8 mg/L (≈ 7.41 µM) in assay [18]. The MIC90 in assay [19] was 6 mg/L (≈ 9.26 µM); in assay [20], 9.4 mg/L; in assay [22], above 10 mg/L; in [23], 4.7 mg/L (≈ 7.26 µM); in [24], 11.9 mg/L. Further, the Ratio in assay [4] and in assay [21] was 2 throughout. Moreover, the IC50 in [9] came to 7.7 mg/L (≈ 11.9 µM). For the same compound, the MBC90 in [19] was found to be 44.2 mg/L (≈ 68.2 µM).
With `CC[C@H]1OC(=O)[C@H](C)[C@@H](O[C@H]2C[C@@](C)(OC)[C@@H](O)[C@H](C)O2)[C@H](C)[C@@H](O[C@@H]2O[C@H](C)C[C@H](N(C)C)[C@H]2O)[C@](C)(O)C[C@@H](C)C(=O)[C@H](C)[C@@H](O)[C@]1(C)O` [ERYTHROMYCIN], the figures for the MIC90 in assay [6] and in [17] were 1.9 mg/L (≈ 2.59 µM) and 0.1 mg/L (≈ 0.136 µM), respectively.
The like results for `CN[C@H](CC(C)C)C(=O)N[C@H]1C(=O)N[C@@H](CC(N)=O)C(=O)N[C@H]2C(=O)N[C@H]3C(=O)N[C@H](C(=O)N[C@H](C(=O)O)c4cc(O)cc(O)c4-c4cc3ccc4O)[C@H](O)c3ccc(c(Cl)c3)Oc3cc2cc(c3O[C@@H]2O[C@H](CO)[C@@H](O)[C@H](O)[C@H]2O[C@H]2C[C@](C)(N)[C@H](O)[C@H](C)O2)Oc2ccc(cc2Cl)[C@H]1O` [VANCOMYCIN] were, in that order, 2.3 mg/L (≈ 1.59 µM) and 0.1 mg/L (≈ 0.069 µM).
In turn, `NCC[C@H](O)C(=O)N[C@@H]1C[C@H](N)[C@@H](O[C@H]2O[C@H](CN)[C@@H](O)[C@H](O)[C@H]2O)[C@H](O)[C@H]1O[C@H]1O[C@H](CO)[C@@H](O)[C@H](N)[C@H]1O` [AMIKACIN] yielded an MIC90 in [3] of 1.8 mg/L (≈ 3.07 µM).
On to `Cc1ncc([N+](=O)[O-])n1CCO` [METRONIDAZOLE], for which the MIC90 in assay [8], in assay [12], in [15], in assay [16], in [18] and in [19] was above 87.6 mg/L throughout. Also, the MIC90 in [20], in assay [23] and in assay [24] was above 87.6 mg/L throughout.
The compound `C[C@@H]1[C@H](O)[C@@H](C)/C=C/C=C/C=C/C=C/C=C/C=C/C=C/[C@H](O[C@@H]2O[C@H](C)[C@@H](O)[C@H](N)[C@@H]2O)C[C@@H]2O[C@](O)(C[C@@H](O)C[C@@H](O)[C@H](O)CC[C@@H](O)C[C@@H](O)CC(=O)O[C@H]1C)C[C@H](O)[C@H]2C(=O)O` [AMPHOTERICIN B] gave an MIC90 in [5] of 0.4 mg/L (≈ 0.433 µM).
For the compound `NNC(=O)c1ccncc1` [ISONIAZID], the MIC90 in assay [8] was 0.9 mg/L (≈ 6.56 µM); in assay [11], 12.7 mg/L (≈ 92.6 µM); in [12], 0.1 mg/L (≈ 0.729 µM); in [15] it was 0.1 mg/L (≈ 0.729 µM); in assay [16], above 1.1 mg/L; in [18], 0.1 mg/L (≈ 0.729 µM). Also, the MIC90 in assay [19] is 0.03 mg/L (≈ 0.219 µM); in assay [20] it was 0.04 mg/L; in assay [23], 0.1 mg/L (≈ 0.729 µM); in [24], 0.1 mg/L.
Compound `NC[C@H]1O[C@H](O[C@H]2[C@H](O)[C@@H](O[C@H]3O[C@H](CO)[C@@H](O)[C@H](N)[C@H]3O)[C@H](N)C[C@@H]2N)[C@H](O)[C@@H](O)[C@@H]1O` [KANAMYCIN] yielded an MIC90 in [2] of 0.7 mg/L (≈ 1.44 µM).
The compound `CC(=O)N1CCN(c2ccc(OCC3COC(Cn4ccnc4)(c4ccc(Cl)cc4Cl)O3)cc2)CC1` (stereo not given) [KETOCONAZOLE] displayed an MIC90 in [5] below 0.004 mg/L.
On to `CC1COc2c(N3CCN(C)CC3)c(F)cc3c(=O)c(C(=O)O)cn1c23` (stereo not given) [OFLOXACIN], for which the MIC90 in [3] is 1.2 mg/L (≈ 3.32 µM); in assay [6], 2.3 mg/L (≈ 6.36 µM); in [17], 1.1 mg/L (≈ 3.04 µM).
